Measured values published in publication PMC11971462, “Generation and validation of a novel multitarget small molecule in glioblastoma” (Cell Death & Disease, 2025).

How the values were obtained:
U87-MG cells [1] = experiment: Subcutaneous U87-MG tumor growth, single treatment; format: in vivo, athymic nude-Foxn1nu mice; conditions: day 34, 100 µM intratumoral, 5 days on 2 days off; controls 800 mm^3
Procedure: (§1) For tumor growth experiments, 5 × 10^5 U87-MG cells were subcutaneously injected into two bottom flanks of athymic nude-Foxn1^nu mice, and once tumors reached a size of 25-50 mm^3, mice were sorted into groups taking into account gender and tumor size. Afterwards, mice were intratumorally treated with vehicle, SAHA 100 µM or DDI199 100 µM following a schedule of 5 days on and 2 days off. In combined treatment, mice were treated intraperitoneally with 0.5 mg/Kg of TMZ for 5 days and intratumorally following a schedule of 5 days on and 2 days off with vehicle, SAHA 100 µM or DDI199 100 µM. After 4 weeks of treatment, some mice were kept for washout experiment, while the rest were sacrificed and tumors were extracted for immunohistochemistry and to disaggregate for reinjection and oncosphere formation studies. For reinjection assays, 1.5 × 10^5 cells were subcutaneously injected and tumor size was periodically measured. Once tumors reached end-point criteria, they were extracted for immunohistochemical analysis. An external caliper was used for tumor size measurement and the tumor volume was estimated using the formula V = L · W^2 · 0.5 (where L is tumor length and W is the tumor width).

U87-MG cells [2] = experiment: Subcutaneous U87-MG tumor growth, combined treatment with TMZ; format: in vivo, athymic nude-Foxn1nu mice; conditions: end-point, controls 600 mm^3
Procedure: as §1

U87-MG cells [3] = experiment: Washout experiment after treatment; format: in vivo, athymic nude-Foxn1nu mice; conditions: after 4 weeks treatment; controls 10 days
Procedure: as §1

U87-MG cells [4] = experiment: Cell viability with TMZ and DDI199 alone or combined; format: cell-based, human; conditions: 72 h, 250 µM TMZ or 0.5 µM DDI199 alone
Procedure: MTT assay was used to study cell viability. For that, cells were seeded at a density of 1.5 × 10^3 cells/well in 96-well plates, incubated overnight and then treated with increasing concentrations of DDI199. After 72 h of treatment, MTT absorbance was measured at 570 nm. GraphPad Prism software was used to analyze results and calculate IC50 values.

## O=C(CCCCCCC(=O)Nc1ccccc1)NO [SAHA, Vorinostat, reference compound]
U87-MG cells [1]
  Mean final tumor volume: 550 mm^3
U87-MG cells [2]; TMZ 0.5 mg/kg ip 5 days + 100 µM intratumoral
  Mean tumor volume, combined with TMZ: 355 mm^3
U87-MG cells [3]
  Time to end-point volume after washout: 10 days

## Cn1nnc2c(C(N)=O)ncn2c1=O [TMZ, temozolomide, reference compound]
U87-MG cells [4]
  Cell viability, single agent: reduced cell viability
U87-MG cells [2]; TMZ 0.5 mg/kg ip 5 days
  Mean tumor volume, TMZ alone: 400 mm^3
